The assay deals with T1, MsrA efflux pump (His-MsrA) (Staphylococcus epidermidis, UniProt P23212).
T1 construct: macrolide ABC-F MsrA of staphylococcal type, not methionine sulfoxide reductase
The assay can be described thus: surface plasmon resonance (Biacore T200, His-MsrA captured on NTA chip). It is filed as binding. As to conditions: PBS-P running buffer; luteolin 12.5-400 μM. Background: SPR reads the build-up and loss of mass on a sensor chip optically.

T1 sequence (P23212 whole entry): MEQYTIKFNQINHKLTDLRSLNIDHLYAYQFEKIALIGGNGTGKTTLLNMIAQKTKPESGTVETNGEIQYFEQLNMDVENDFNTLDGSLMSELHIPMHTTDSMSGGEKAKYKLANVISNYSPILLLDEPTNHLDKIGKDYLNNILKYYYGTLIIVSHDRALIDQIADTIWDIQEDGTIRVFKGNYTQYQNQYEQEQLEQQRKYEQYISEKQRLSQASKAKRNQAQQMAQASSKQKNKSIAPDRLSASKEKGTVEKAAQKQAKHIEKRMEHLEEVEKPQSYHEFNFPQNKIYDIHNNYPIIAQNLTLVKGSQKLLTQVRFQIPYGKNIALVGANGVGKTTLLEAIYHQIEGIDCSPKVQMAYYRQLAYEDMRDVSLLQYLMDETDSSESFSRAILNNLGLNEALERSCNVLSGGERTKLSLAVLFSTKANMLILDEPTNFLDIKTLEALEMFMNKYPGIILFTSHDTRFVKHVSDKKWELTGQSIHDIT

The molecule `O=c1cc(-c2ccc(O)c(O)c2)oc2cc(O)cc(O)c12` [luteolin] showed a Kd of 64.6 µM.

In general, Kd refers to the free concentration of one partner at which half of the binding sites on the other are occupied at equilibrium, for simple one-to-one binding. Low readings indicate higher affinity, high ones lower affinity.

Source of the values: paper PMC8744338, “Luteolin increases susceptibility to macrolides by inhibiting MsrA efflux pump in Trueperella pyogenes” (Veterinary Research, 2022).
